Test results published in ChEMBL document CHEMBL6078725, “Discovery of novel xanthohumol C derivatives regulating XRCC2 transcription and expression for the treatment of colorectal cancer” (Bioorg Med Chem, 2025).
Active and inactive are the calls of the source. No cut-off for these calls is given here.

What was measured:
RKO = test: Antiproliferative activity against human RKO cells incubated for 48 hrs by MTS assay; type: functional, cell-based
HCT-116 [1] = test: Antiproliferative activity against human HCT-116 cells incubated for 48 hrs by MTS assay; type: functional, cell-based; details: HCT-116, 48 h
HCT-116 [2] = test: Antitumor activity against human HCT-116 cells xenografted in BALB/c mouse assessed as inhibition of tumor growth at 20 mg/kg, ip administered for 2 weeks; type: functional, organism-based

| Compound | IC50 (RKO) | IC50 (HCT-116 [1]) | Activity (HCT-116 [2]) |
| --- | --- | --- | --- |
| CCOc1ccc(Br)cc1/C=C/C(=O)c1c(OC)cc2c(c1O)C=CC(C)(C)O2 | 165 µM | 117 µM |  |
| O=c1[nH]cc(F)c(=O)[nH]1 |  |  | Active |
| COc1cc(O)ccc1/C=C/C(=O)c1c(OC)cc2c(c1O)C=CC(C)(C)O2 | 28.4 µM | 32.1 µM |  |
| COc1cc2c(c(O)c1C(=O)/C=C/c1cccc(Br)c1)C=CC(C)(C)O2 | 35.9 µM | 36.7 µM |  |
| COc1cc2c(c(O)c1C(=O)/C=C/c1ccc(N3CCN(C)CC3)cc1)C=CC(C)(C)O2 | 13.5 µM | 12.5 µM |  |
| COc1cc2c(c(O)c1C(=O)/C=C/c1ccc(C(C)C)cc1)C=CC(C)(C)O2 | 69.5 µM | 79.1 µM |  |
| COc1cccc(/C=C/C(=O)c2c(OC)cc3c(c2O)C=CC(C)(C)O3)c1 | 24.4 µM | 25.1 µM |  |
| COc1cc2c(c(OC)c1C(=O)/C=C/c1ccccc1)C=CC(C)(C)O2 | 20.4 µM | 22.7 µM |  |
| COc1cc2c(c(O)c1C(=O)/C=C/c1ccc(C(F)(F)F)cc1)C=CC(C)(C)O2 | 25.4 µM | 26.2 µM |  |
| COc1ccc(/C=C/C(=O)c2c(OC)cc3c(c2O)C=CC(C)(C)O3)c(OC)c1OC | 23.2 µM | 26.3 µM |  |
| COc1cc(/C=C/C(=O)c2c(OC)cc3c(c2O)C=CC(C)(C)O3)cc(OC)c1 | 25.1 µM | 24.9 µM |  |
| COc1cc2c(c(O)c1C(=O)/C=C/c1cccc(C(C)(C)C)c1)C=CC(C)(C)O2 | 89.8 µM | 74.2 µM |  |
| COc1cc2c(c(O)c1C(=O)/C=C/c1ccc(O)c(Br)c1)C=CC(C)(C)O2 | 21.1 µM | 24.6 µM |  |
| COc1cc2c(c(O)c1C(=O)/C=C/c1ccccc1Br)C=CC(C)(C)O2 | 23.1 µM | 20.5 µM |  |
| COc1cc2c(c(O)c1C(=O)/C=C/c1ccccc1O)C=CC(C)(C)O2 | 10.9 µM | 12.9 µM |  |
| COc1cccc(/C=C/C(=O)c2c(OC)cc3c(c2O)C=CC(C)(C)O3)c1OC | 13.9 µM | 23.1 µM |  |
| COc1cc2c(c(O)c1C(=O)/C=C/c1cccc(N3CCN(C)CC3)c1)C=CC(C)(C)O2 | 128 µM | 12.5 µM |  |
| COc1cc(/C=C/C(=O)c2c(OC)cc3c(c2O)C=CC(C)(C)O3)ccc1O | 17.6 µM | 24.8 µM |  |
